Usually Kd stands for the equilibrium constant for the complex coming apart. Higher therefore signals a looser complex.

This is an account of results in publication doi:10.1101/2025.08.01.668199, “Vacuolar Phosphatidylinositol 3,4,5-trisphosphate controls fusion through binding Vam7, and membrane microdomain assembly” (bioRxiv, 2025).

One experiment addresses T1, Vam7 (Saccharomyces cerevisiae, UniProt P32912).
T1 construct: GST-Vam7
T1 sequence (P32912 1-316): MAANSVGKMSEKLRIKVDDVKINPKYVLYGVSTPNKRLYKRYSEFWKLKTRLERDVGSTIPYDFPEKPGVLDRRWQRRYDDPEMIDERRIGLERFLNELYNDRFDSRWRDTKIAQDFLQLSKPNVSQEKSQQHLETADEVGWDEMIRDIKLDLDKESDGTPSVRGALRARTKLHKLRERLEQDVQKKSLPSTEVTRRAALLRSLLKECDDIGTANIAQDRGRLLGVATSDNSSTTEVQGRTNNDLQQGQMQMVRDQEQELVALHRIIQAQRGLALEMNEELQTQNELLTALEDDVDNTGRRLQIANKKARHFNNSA
The experiment is described as follows: bio-layer interferometry, biotinylated lipid on streptavidin probe. The format is binding. In general terms: In BLI a coated tip is dipped into the sample, and binding shifts an interference pattern.

The target of another experiment is T2, Vam7^Y42A (Saccharomyces cerevisiae, UniProt P32912, Y42A).
T2 construct: GST-Vam7^Y42A
T2 sequence (P32912 whole entry Y42A): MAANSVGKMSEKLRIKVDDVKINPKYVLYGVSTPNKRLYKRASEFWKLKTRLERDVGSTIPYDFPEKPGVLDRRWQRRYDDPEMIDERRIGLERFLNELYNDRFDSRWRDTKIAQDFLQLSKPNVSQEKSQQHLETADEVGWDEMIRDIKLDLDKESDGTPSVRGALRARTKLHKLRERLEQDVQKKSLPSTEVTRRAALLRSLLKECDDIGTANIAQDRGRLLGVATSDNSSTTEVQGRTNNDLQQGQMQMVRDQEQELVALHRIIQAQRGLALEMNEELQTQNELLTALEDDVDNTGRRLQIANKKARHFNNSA
The description is as above. The experiment is classed as binding.

Turning to PI3P, on Vam7, the dissociation constant Kd was ~200 nM.
With PI(3,4,5)P3, the dissociation constant Kd at Vam7^Y42A was ~210 nM; on Vam7 it was ~70 nM.
